Test results taken from patent US20240317755A1, “HETEROCYCLIC COMPOUND, AND INTERMEDIATE THEREOF, PREPARATION METHOD THEREFOR AND USE THEREOF” (WUHAN LL SCIENCE AND TECHNOLOGY DEVELOPMENT CO., LTD., priority 2021, published 2024).
Read-outs that look alike come from different tables or passages of the source.

Experiments:
[1] = Pharmacokinetic study in mice in vivo (gavage and tail vein injection); conditions: for AUC(0-t) / Cmax: dose 1 mg/kg
Text: […] Mouse plasma was collected at a specific time point after administration, and the concentration of the compound in plasma was detected by LC-MS/MS (AB SCIEX Qtrap4500). PK parameters of each compound (WinNonlin V5.2, Pharsight) were statistically analyzed and calculated to reflect the pharmacokinetic properties of the compounds of the present disclosure in mice in vivo.

[2] = Tissue distribution in CD-1 mice after single intragastric administration; type: in vivo; conditions: mouse, oral, male CD-1 mice, 10 mg/kg intragastric
Experimental: Mice: CD-1 mice, SPF grade, 9, male, weighting 18 to 22 g (source: SPF (Beijing) Biotechnology Co., Ltd., certificate number: 110324200103036532).
Dispensing: After accurately weighing compound L015, 20% solutol of the required volume was added thereto first, sonicated for 20 min and stirred for 1.5 hours until no visible particles were visible to the naked eye, and the middle layer of the drug solution was taken for drug administration. 2 parts of the top, middle, and bottom layers of the suspension were taken, and 2 parts of the middle layer of the clarified solution were taken, and 100 μL of each part was accurately aspirated into a 1.5 mL EP tube. Samples were taken before administration, and after sampling, the samples were stored in a −80° C. refrigerator and sent together with the plasma samples for bioanalytical test.
Animals were randomly divided into 3 groups. Compound L015 was administered at 3 different time points, with 3 animals per group, all males. All mice were given a single intragastric administration with an administration volume of 10 mL/kg. The specific grouping and administration information is as follows:
After the administration was completed, the animals in each group were anesthetized by intraperitoneal injection of 1% pentobarbital sodium (the administration volume was 0.06 mL/10 g) 5 minutes before their respective time points, and about 0.3 mL of blood was collected in an anticoagulant EP tube (containing 4 μL of EDTA-K2, 375 mg/mL), which was gently inverted for 3 times and stored in an ice box (no more than 30 minutes), centrifuged at 4° C. for 10 minutes with 3500×g. The supernatant was transferred to a labeled EP tube for bioanalytical test. If it could not be analyzed the same day, it was stored at −80° C. until further testing (be careful not to perform multiple freezing/thawing processes).
After the blood was taken, the abdominal cavity was quickly opened, and the abdominal aorta and vein of the […] were cut. After the blood was drained, the heart, liver, spleen, lung, kidney, and brain of the rat were taken, respectively. After the tissue was taken, the tissue was immediately rinsed with normal saline to remove any residual blood on the surface, blotted dry with filter paper, and the connective tissue was removed and weighed. The homogenization tube was placed in an ice water bath, and the tissue sample homogenate was thoroughly homogenized with a high-speed homogenizer and sent for bioanalytical test. If it could not be analyzed the same day, it was stored at −80° C. until further testing (be careful not to perform multiple thawing/freezing processes).
1.5 Sample analysis method 1.5.1 Experimental instruments: • High performance liquid chromatography pump (pump): Exion LC AD Pump, Sciex Company • Auto sampler: Exion LC AD Autosampler, Sciex Company • Column oven: Exion LC AD Column Oven, Sciex Company • Mass spectrometer: AB Sciex Qtrap 4500 • High-speed refrigerated centrifuge (centrifuge): Thermo Fisher, ST16R, GG1206085-093 • Analytical balance (electronic balance): Mettler Toledo, MS-105D, GG1206363 • Micro vortex (vortex): Shanghai Huxi Analysis Instrument Factory, WH-2, GG1206487 1.5.2 Experimental materials: mouse plasma and tissue
Sample pretreatment process: 3 μL of working solution was taken, and 57 μL of blank matrix was added into a 1.5 mL centrifuge tube, and then 240 μL of acetonitrile solution containing 200 ng/mL tolbutamide and labetalol mixed with 0.1% formic acid was added to precipitate protein. The mixture was vortexed and mixed for 1 minute, and then centrifuged in a 4° C. centrifuge at 13000 rpm for 15 minutes. 100 μL of supernatant was taken and added to another 96 deep well plate, and 100 μL of methanol:water (1:3, v:v) solution containing 0.1% FA was added. The mixture was mixed with shaking for 1 min, and centrifuged at 3500 rpm for 5 min in a 96-well plate centrifuge and the sample was injected directly. […]

In the case of `O=C(c1ccc(F)cc1C(F)(F)F)c1cnc2n1CCN(c1cn[nH]c(=O)c1Cl)C2` [Compound 1-6, 4-chloro-5-(3-(4-fluoro-2-(trifluoromethyl)benzoyl)-5,6-dihydroimidazo[1,2-a]pyrazin-7(8H)-yl)pyridazin-3(2H)-one], the AUC(0-t) ([1]; mouse, plasma, iv) is reported as 1860 ng·h/mL, the Cmax ([1]; mouse, plasma, iv) is reported as 1110 ng/mL and the bioavailability ([1]; mouse, plasma, po, 1 mg/kg, p.o. vs i.v.) is reported as 66.8%. The AUC(0-t) ([1]; mouse, plasma, po) was 1240 ng·h/mL, the Cmax ([1]; mouse, plasma, po) was 422 ng/mL and the “time of peak plasma concentration” value ([1]; oral administration, 10 mg/kg, previous PK results) was 1 h. It also gave a concentration at 0.167 h ([2]; brain, 20% solutol, read-out: concentration in brain) of 706 ng/g, a concentration at 1 h ([2]; brain, 20% solutol, 1 hour) of 161 ng/g and a concentration at 10 h ([2]; brain, 20% solutol, 10 hours) of 25.9 ng/g. For the same compound, the Kp at 0.167 h ([2]; brain, read-out: brain, times of the plasma concentration) was 0.05, the Kp at 1 h ([2]; brain, 1 hour, read-out: brain, times of the plasma concentration) was 0.19 and the Kp at 10 h ([2]; brain, 10 hours, read-out: brain, times of the plasma concentration) was 0.09. For the same compound, the concentration at 0.167 h ([2]; kidney, 20% solutol, read-out: concentration in kidney) was 1470 ng/g, the Kp at 0.167 h ([2]; kidney, read-out: kidney, times of the plasma concentration) was 2.5 and the Kp at 1 h ([2]; kidney, 1 hour, read-out: kidney, times of the plasma concentration) was 2.51. The Kp at 10 h ([2]; kidney, 10 hours, read-out: kidney, times of the plasma concentration) was 1.5, the concentration at 0.167 h ([2]; liver, 20% solutol, read-out: concentration in liver) was 3260 ng/g and the Kp at 0.167 h ([2]; liver, read-out: liver, times of the plasma concentration) was 5.55. The Kp at 1 h ([2]; liver, 1 hour, read-out: liver, times of the plasma concentration) was 4.53 and the Kp at 10 h ([2]; liver, 10 hours, read-out: liver, times of the plasma concentration) was 5.05.
